Experimental data as given in patent US20210378193A1, “HAPLOID EMBRYOGENESIS” (STICHTING WAGENINGEN RESEARCH, priority 2013, published 2021).

Key:
[1] = system: Arabidopsis immature male gametophytes; assay: Arabidopsis anther culture, sporophytic division of immature male gametophytes; type: cell-based; conditions: Col0 anthers, 25° C., 0.5 μM TSA, five days; never observed without TSA
Experimental: Arabidopsis flower buds at stage 11 were collected for anther culture. Flower buds were surface sterilized in 2% bleach for 10 minutes, then rinsed three times in distilled water. The anthers (without filament) were placed in a liquid NLN-13 medium containing 0.5 μM TSA or the same volume of DMSO and then cut in half transversely in the medium to release the microspores. The cultures were placed at 25° C. for 20 hours in the dark. The medium was then replaced by fresh NLN-13 medium by pipetting gently, and the cultures incubated at 25° C. for an additional four days. Free and loosely attached microspores were collected and stained with DAPI. Arabidopsis hda T-DNA insertion lines were obtained from Nottingham Arabidopsis Stock Centre. At least 300 microspores per sample were counted.
Multicellular structures that resemble the Type II and IV structures seen in Brassica microspore culture are produced when stage 11 Arabidopsis anthers are cultured at 25° C. with 0.5 μM TSA. […] TSA induces embryogenic cell divisions in Arabidopsis immature male gametophytes. Panels show: (A)=DAPI stained anther in TSA-treated culture showing multicellular, sporophytic structures derived from immature male gametophytes (arrow). […] (B)=cleared anther from a control culture showing lack of sporophytic cell proliferation. […]

[2] = system: B. napus DH12075 microspore culture; assay: sporophytic cell division in B. napus DH12075 microspore culture (DAPI staining); type: cell-based, Brassica napus
Experimental: Brassica napus L. DH12075 was used as a donor plant for microspore embryo culture. The B. napus plant growth and microspore isolation procedures were performed as described in Custers, J. B. M. (2003) “Microspore culture in rapeseed (Brassica napus L.)” in Doubled haploid production in crop plants: a manual, M. Maluszynski, K. J. Kasha, B. P. Forster, and I. Szarejko, eds (Dordrecht: Kluwer Academic Publishers), pp. 185-193. Flower buds for microspore culture were grouped by size (measured from the tip of the flower bud to the bottom of the sepal), ranging from 3.0 to 3.5 mm for DH4079 and from 2.6 to 4.0 mm for DH12075. The microspores were isolated and cultured in NLN-13 medium (see Lichter, R. (1982) […]. For induction of embryogenesis, microspores were cultured in the dark at 33° C. for 20 hours and subsequently transferred to 25° C. Non-induced microspore cultures were cultured continuously at 25° C. or 18° C. Trichostatin A (TSA, Sigma-Aldrich) was prepared in DMSO. Freshly isolated microspores were inoculated in a medium containing TSA or the same volume of DMSO as a control and cultured for 20 hours at the temperature indicated for each experiment. After this period, the cultures were centrifuged at 200 g for 3 min, resuspended in fresh NLN-13 medium without TSA, and transferred to 25° C.
The developmental stage and identity of cells in microspore and anther culture were visualized with the nuclear stain 4′, 6-diamidino-2-phenylindole (DAPI, 1.25 μg/ml according to Custers (2003) supra using a Zeiss Axioskop epifluorescence microscope with a filter set no. 02. Approximately two hundred microspores or multicellular clusters were counted for each sample. GFP was imaged using confocal laser scanning microscopy (CLSM; Leica DM5500 Q). The GFP was excited with an argon laser line at 488 nm and detected with a 505-530 nm emission filter. Samples were counterstained with DAPI or propidium iodide (10 mg/ml; Sigma-Aldrich). Propidium iodide and red autofluorescence were excited at 532 nm and detected with a 620-660 nm emission filter. GFP and DAPI were covisualized with CLSM. For CLSM, DAPI was excited at 405 nm and detected with a 440-500 nm emission filter. The optical slices were median filtered with Leica LAS AF software. Arabidopsis anthers were cleared in HCG solution (water: Chloral hydrate: glycerol; 3:8:1) for 10 min, then observed under DIC microscopy with a Nikon OPTIPHOT microscope.
Cultured microspores and pollen of B. napus genotype DH12075 were treated with the HDAC inhibitor TSA. We examined the development of microspore cultures by staining heat-stressed (hereafter referred to as control) and heat-stressed plus TSA-treated immature male gametophytes at different developmental stages with the nuclear dye, DAPI. Initial dosage experiments were used to establish the minimal exposure time (20 h) in relation to the specific phenotypes discussed below.
The developmental fate of heat-stressed control cultures and cultures exposed to both heat-stress and TSA was followed by examining older cultures in more detail. […] Heat-stressed microspores and pollen were treated with a range of TSA concentrations, and the cultures examined after five and 15 days using DAPI staining to characterize the different multicellular structures that developed.

histone H3 and H4 = assay: Western blot of protein and histone acetylation in B. napus microspore cultures; type: cell-based, Brassica napus
Experimental: Freshly isolated microspores and microspores cultured for 8 hours under different experimental conditions were harvested by centrifugation. Proteins were extracted by boiling in SDS-sample buffer (30 μl per ml of culture) and electrophoresed in a Midget 12.5% SDS-PAGE gel under reducing conditions. After transfer of the proteins to PVDF membrane and blocking with 5% milk powder in PBS, 0.1% Tween 20, the blots were incubated for 2 hours with primary antibody (1:2000 dilution). The primary antibodies used in this study are as follows: anti-acetyl-Lysine (ICP0380; ImmuneChem Pharmaceuticals), anti-Histone H3 (ab1791; Abcam), anti-Histone H4 (clone 62-141-13; Millipore), and anti-acetyl-Histone H3 and anti-acetyl-Histone H4 (Millipore). Secondary goat anti-rabbit-HRP antibody (Sigma) was used in a 1:2000 dilution, and signals were detected by using enhanced chemiluminescence (SuperSignal West Femto Chemiluminescent Substrate, Pierce). An acetylated lysine antibody was used in combination with protein gel blotting to identify proteins whose acetylation status changes in 8-hour heat-stress plus TSA-treated B. napus microspore cultures compared to heat-stressed control cultures. […] Panels show: (A)=Western blot of total acetylated proteins in microspore cultures treated for eight hours with DMSO (control) or TSA—proteins in the range of 10-25 kDa are differentially acetylated after TSA treatment compared to the control; (B)=Western blot of total and acetylated (Ac) histone H3 and H4 in microspore cultures treated for eight hours with DMSO (control) or TSA. The percentages of sporophytic divisions in the different cultures at day 5 are shown under each sample. […] The acetylation status of histones H3 and H4 was determined during microspore culture using acetylated histone H3 (Ac-H3) and H4 (Ac-H4) antibodies. Microspore cultures were started from buds containing mostly binucleate pollen and placed for eight hours at either 18° C. or 33° C. with or without 0.5 μM TSA. […] (FIG. 8B).

**Q.** Which results are given for `CC(/C=C/C(=O)NO)=C\[C@@H](C)C(=O)c1ccc(N(C)C)cc1` [TSA, trichostatin A]?
**A.** percentage of immature male gametophytes that divided sporophytically [1]: 0-5%; effect of duration of TSA treatment on proportion of sporophytic divisions ([2]; 0.5 μM TSA, 33° C., treatment longer than 20 hours, counted after five days): did not further enhance or reduce; proportion of the population dividing sporophytically ([2]; heat stress plus 0.5 μM TSA, after two days of culture): up to 80%; sporophytically-divided cells also containing one or more generative-like nuclei ([2]; heat stress plus 0.5 μM TSA, two days of culture): approximately 10%; Type IV (loose callus-like) structures ([2]; heat-stress and TSA, five-day-old cultures, control 0.5%): up to 32%; Type II (compact callus-like) structures ([2]; heat-stress and TSA, five-day-old cultures, control 7%): up to 77%; Type I classical embryogenic structures ([2]; heat-stress, 0.5 μM TSA, five days, control 0.5%): up to 1%; Type I classical embryogenic structures, abundance ([2]; heat-stress, ten times lower concentration of TSA than 0.5 μM): much more abundant; percentage of sporophytic divisions versus control at lower temperature ([2]; microspore cultures at 18 or 25° C.): increased percentage of sporophytic divisions; total amount of histone H3 and H4 (histone H3 and H4; 0.5 μM TSA, eight hours): no clear effect; sporophytic divisions compared to untreated controls (histone H3 and H4; 0.5 μM TSA, eight hours at 18° C. and 33° C., divisions at day 5): greatly enhanced; level of histone H3 and H4 acetylation relative to control (histone H3 and H4; 0.5 μM TSA, eight hours, 18° C. and 33° C.): increased dramatically; acetylation of small molecular weight proteins in the range of 10-25 kDa (histone H3 and H4; 8-hour heat-stress plus TSA versus heat-stressed control): Increased protein acetylation
